Laboratory results taken from patent US12390436B1, “Mutations in mitochondrial enzyme GPT2 cause metabolic dysfunction and neurological disease with developmental and progressive features” (priority 2020, dated 2025).
Entries after “also recorded” stand apart in the source; their conditions may differ.

Columns and labels:
[1] = preclinical studies (Willis et al. 2010; Hadera et al. 2014); cited from earlier work
[2] = clinical trials, e.g., NCT01379625 and NCT01993186 (Vockley et al. 2017); cited from earlier work
germline Gpt2-null mice = assay: Dietary supplementation of germline Gpt2-null mice: survival and phenotype; assay type: in vivo, mouse
Text: Vertebrate animal assays. The assays use a wild-type mouse line and a genetically modified mouse line (i.e., germline Gpt2-null line). A person having ordinary skill in the biomedical art can perform these assays following the procedures in protocol 18-11-0002, approved by the Brown University Institutional Animal Care and Use Committee (IACUC). All animals used in assays described in this specification were housed at the Brown University Animal Care Facility.
Rescue of motor phenotype in vivo with dietary modifications. Synthesis of alanine in the brain is prominently deficient in Gpt2-null animals. An overriding hypothesis (OH1) is that, in the absence of GPT2, alanine changes from a non-essential amino acid to an essential amino acid in neurons, and neuronal alanine deficiency impedes protein synthesis and neuronal growth. The inventors determined there is an anaplerotic defect in Gpt2-null brains (OH2). The inventors are attempting to rescue animal survival, weight gain, and health of the motor system by alanine supplementation, anaplerotic supplementation, and the combination. […] The inventors are testing the extent to which other phenotypic aspects, particularly related to motor defects, are ameliorated by alanine supplementation over time with and without anaplerotic supplementation. The inventors also investigate the requirement for exogenous dietary alanine by removing alanine from the diet of Gpt2-null animals.
Alanine supplementation: Littermate germline Gpt2-null and wild-type animals are fed either high-alanine diet (5% by weight), alanine-deprived diet (0%), or standard chow (1.2%). The formulations generated by Envigo are fed to breeding pairs, pregnant mothers, and pups, based on prior studies by Battaglia & Regnault, Placenta, 22, 145-161 (2001). Food is provided ad libitum. Therefore, newborn Gpt2-mutant pups are receiving the diet throughout gestation and from birth onward. […] The inventors measured alanine in peripheral blood and brain tissue by metabolomics. […]

[3] = in vivo; cited from earlier work

Row | Structure (SMILES) | antiseizure effects [1] | tolerability [2] | effect on survival of germline Gpt2-null animals (in words) (germline Gpt2-null mice; alanine supplementation / high-alanine diet, preliminary work) | effect on phenotype in the mouse model of Gpt2 disease (in words) (germline Gpt2-null mice; dietary supplementation in development, preliminary data) | survival of germline Gpt2-null pups beyond weaning (germline Gpt2-null mice; supplemental dietary alanine to pregnant and lactating mothers and pups, freely feeding, vs. 0% on standard chow, p<0.0001, log-rank (Mantel-Cox) test) [%] | crosses the blood-brain barrier [3]
1 | CCCCCCC(=O)OCC(COC(=O)CCCCCC)OC(=O)CCCCCC [triheptanoin, reference compound] | has antiseizure effects | well tolerated | – | – | – | –
2 | C[C@H](N)C(=O)O [alanine] | – | – | impact; also recorded: improves the survival | benefited; also recorded: partially ameliorates the phenotype | 36.7 | crosses the blood-brain barrier
